Measurements published in PubChem BioAssay (NCI).
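A five-concentration, 48-hour dose response in 96-well plates underlies each endpoint, interpolated linearly between surrounding concentrations. The concentration for full growth arrest is given as TGI.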

Experiments:
Assay in all cases: NCI-60 cell line screen, 48 h
CAKI-1 renal = tested on: CAKI-1 renal
DLD-1 colon = tested on: DLD-1 colon
DMS 114 small cell lung = tested on: DMS 114 small cell lung
DMS 273 small cell lung = tested on: DMS 273 small cell lung
HOP-18 NSCLC = tested on: HOP-18 NSCLC
KM20L2 colon = tested on: KM20L2 colon
LXFL 529 NSCLC = tested on: LXFL 529 NSCLC
M14 melanoma = tested on: M14 melanoma
M19-MEL melanoma = tested on: M19-MEL melanoma
RXF-631 renal = tested on: RXF-631 renal
SF-539 CNS = tested on: SF-539 CNS
SNB-78 CNS = tested on: SNB-78 CNS
XF 498 CNS = tested on: XF 498 CNS

| Structure (SMILES) | TGI (CAKI-1 renal) [µM] | TGI (DLD-1 colon) [µM] | TGI (DMS 114 small cell lung) [µM] | TGI (DMS 273 small cell lung) [µM] | TGI (HOP-18 NSCLC) [µM] | TGI (KM20L2 colon) [µM] | TGI (LXFL 529 NSCLC) [µM] | TGI (M14 melanoma) [µM] | TGI (M19-MEL melanoma) [µM] | TGI (RXF-631 renal) [µM] | TGI (SF-539 CNS) [µM] | TGI (SNB-78 CNS) [µM] | TGI (XF 498 CNS) [µM] |
| --- | --- | --- | --- | --- | --- | --- | --- | --- | --- | --- | --- | --- | --- |
| COc1cc2c(cc1O)C(C)Cc1cc3c(cc1N(C)CC2)OCO3 (stereo not given) | > 74.3 | 42.7 | > 21.9 | 13 | 90.9 | 26.9 | > 95.6 | 19 | > 40.8 | > 59 | 8.8 | 42.3 | 20.4 |
| CC1=NN(C(=O)Cc2ccccc2)C(=O)/C1=C\c1ccco1 | > 100 | > 100 | > 100 | > 100 | > 100 | – | – | > 100 | > 100 | – | > 100 | > 100 | > 100 |
| COc1cc(C=O)c(-c2cc3c(cc2C=O)OCO3)c(OC)c1OC | > 290 | > 290 | > 290 | > 290 | > 290 | 147 | > 290 | – | > 290 | > 290 | 188 | – | – |
| CCOC(=O)/C=C/c1ccccn1 | > 100 | > 100 | > 100 | – | > 100 | – | > 100 | > 100 | > 100 | > 100 | > 100 | > 100 | > 100 |
| CN1OC2OC(=O)OC2[C@H]1[C@H]1O[C@H](c2ccccc2)OC1(C)c1cc(OC(=O)c2ccccc2)ccc1OC(=O)c1ccccc1 (stereo not given in full) | > 50 | > 50 | > 50 | > 50 | – | > 50 | > 50 | > 50 | > 50 | > 50 | > 50 | > 50 | > 50 |
| O=C(Nc1c(Cl)cc([N+](=O)[O-])cc1Cl)/C(=N\Nc1cccc(Cl)c1)c1c(O)c2ccccc2oc1=O | – | > 100 | > 100 | – | – | > 100 | – | – | > 100 | > 100 | > 100 | – | – |
| Cc1cc(NCCCCCCNc2cc(C)nc3ccc(Cl)cc23)c2cc(Cl)ccc2n1 | > 100 | 30.8 | 36 | 42.1 | – | 32.4 | > 100 | > 100 | 43.4 | > 100 | 29.4 | 56.8 | 32 |
| O=C(CSc1nnc(-c2ccc(N=Cc3ccc(Cl)cc3)cc2)o1)Nc1cccc(Cl)c1 | – | – | > 100 | > 100 | > 100 | > 100 | > 100 | > 100 | > 100 | – | – | > 100 | > 100 |
| S=C(Nc1ccccc1)N1N=C2c3ccccc3CC[C@H]2[C@@H]1c1ccccc1 | – | > 100 | > 100 | – | > 100 | > 100 | > 100 | > 100 | > 100 | – | > 100 | > 100 | > 100 |
| CC(=O)NC(CCCCNC(=O)N(C)N=O)C(=O)NCc1ccccc1 (stereo not given) | > 100 | > 100 | > 100 | > 100 | – | > 100 | > 100 | > 100 | > 100 | > 100 | > 100 | > 100 | > 100 |
